Reference: PMC7217877, “N-AS-triggered SPMs are direct regulators of microglia in a model of Alzheimer’s disease” (Nature Communications, 2020)
“And” between values parts separate entries of the source, which are not always exact repeats. Equal entries are not always repeated.

Columns and labels:
[1] = single-dose brain PK and brain distribution; assay type: in vivo, C57BL/6 mice; conditions: mouse; for Kp / MRT / half-life / AUC(0-inf) / AUC(0-t): C57BL/6, brain; for AUC(0-inf): read-out: AUCinf (Brain); for AUC(0-t): read-out: AUClast (Brain)
Experimental: (§1) C57BL/6 mice were administered N-AS (Sigma-Aldrich, 01912) at doses of 1 mg kg^−1 (i.v.) or 10 mg kg^−1 (p.o.). Venous blood samples were collected at 5, 15, and 30 min, and 1, 2, 4, 8, and 24 h postdose. A 30 μl of plasma was separated from whole blood by centrifugation and stored at −80 °C until analysis. Also, brain samples were collected at 1, 2, 4, and 24 h postdose and heart, liver, and kidney samples were collected at 24 h postdose, thoroughly rinsed with physiological saline and weighed. Twenty percentage of tissue homogenates were prepared by homogenizing the tissue samples with four volumes of saline. A 30 μl aliquot of plasma or a 50 μl aliquot of tissue homogenates were deproteinized by addition of 200 μl cold methanol (containing naringenin as internal standard at 20 ng ml^−1) and centrifuged at 15,974×g for 10 min. A 10 μl aliquot of the supernatant was injected into Agilent 6470 LC-MS/MS system. Separation was performed on a Synergy Polar RP column (4 μm particle size, 2.0 mm ×150 mm, Phenomenex) using a mobile phase that consisted of methanol and water (85:15, v/v) with 0.1% formic acid at a flow rate of 0.2 ml min^−1. Quantification was carried out using multiple reaction monitoring (MRM) at m/z 340.3→263.3 for N-AS and m/z 271.1→151.3 for naringenin (internal standard) in negative ionization mode and collision energy of 20 eV. p, and relative oral BA values were calculated as follows: BA% = AUCp.o. normalized by p.o. dose/AUCi.v. normalized by i.v. dose × 100.

single-dose plasma PK = assay type: in vivo, C57BL/6 mice; conditions: mouse; for AUC(0-inf): read-out: AUCinf (Plasma); for AUC(0-t): read-out: AUClast (Plasma)
Experimental: as §1

neuron = assay: SphK activity in primary cells; assay type: cell-based, C57BL/6 mice; conditions: Ab 10mM, replicates
Experimental: We confirmed S1P formation through SphK1 enzymatic activity measurements as previously described[11] using a UPLC (Ultra performance liquid chromatography) system (Waters). […] After pre-incubation, 1 mM ATP (Amresco, 0220) was added the mixture, and it was incubated at 37 °C for 1 h. The […] reactions were stopped by adding 53 μl of ethanol, and centrifuged at 15,493×g for 5 min. Thirty microliter of the supernatant was then transferred to a sampling glass vial and 5 μl was applied onto a UPLC system for analysis. S1P formation was followed as phosphorylation of (7-nitro-2-1,3-benzoxadiazol-4-yl)-d-erythro (NBD)-sphingosine (Avanti Polar Lipids) to NBD-S1P. Quantification was achieved by comparison with NBD-S1P (Avanti Polar Lipids) standards.
To confirm the generation and roles of N-AS in neurons, cells from E18 C57BL/6 mice were prepared as previously described. Cortices were dissected and then dissociated followed by incubation in papain (Worthington) at 37 °C for 15 min. […] The human microglia treated with Aβ 1–42 and/or zileuton was incubated with N-AS (2.5 μM, 2 h, Sigma-Aldrich, 01912), and were analyzed for the generation and roles of N-AS.

[2] = C57BL/6, plasma, iv, i.v. 1 mg/kg
[3] = C57BL/6, plasma, po, p.o. 10 mg/kg

Compound: CCCCCCCCCCCCC/C=C/[C@@H](O)[C@H](CO)NC(C)=O [N-AS, N-((2S,3R,E)-1,3-Dihydroxyoctadec-4-en-2-yl)acetamide]
- Kp ([1]; iv, i.v. 1 mg/kg): 2.16
- MRT ([1]; iv, i.v. 1 mg/kg): 6.94 ± 0.62 h
- half-life ([1]; iv, i.v. 1 mg/kg): 6.31 ± 0.38 h
- AUC(0-inf) ([1]; iv, i.v. 1 mg/kg): 1440 ± 228 ng·h/mL
- AUC(0-t) ([1]; iv, i.v. 1 mg/kg): 1340 ± 224 ng·h/mL
- Kp ([1]; po, p.o. 10 mg/kg): 3.18
- MRT ([1]; po, p.o. 10 mg/kg): 8.64 ± 1.01 h
- half-life ([1]; po, p.o. 10 mg/kg): 22 ± 6.07 h
- AUC(0-inf) ([1]; po, p.o. 10 mg/kg): 1750 ± 362 ng·h/mL
- AUC(0-t) ([1]; po, p.o. 10 mg/kg): 895 ± 60.5 ng·h/mL
- Cmax (Brain) ([1]; i.v. 1 mg/kg): 165.18 ± 18.42 ng/mL
- Cmax (Brain) ([1]; p.o. 10 mg/kg): 90.27 ± 2.95 ng/mL
- MRT (single-dose plasma PK; [2]): 2.27 ± 0.11 h
- half-life (single-dose plasma PK; [2]): 3.45 ± 0.16 h
- AUC(0-inf) (single-dose plasma PK; [2]): 667 ± 28.8 ng·h/mL
- AUC(0-t) (single-dose plasma PK; [2]): 665 ± 28.6 ng·h/mL
- bioavailability (single-dose plasma PK; C57BL/6, plasma, oral, p.o. 10 mg/kg vs i.v. 1 mg/kg, read-out: BA (Bioavailability)): 8.25%
- Cmax (single-dose plasma PK; [3]): 683 ± 141 ng/mL
- MRT (single-dose plasma PK; [3]): 3.1 ± 0.14 h
- Tmax (single-dose plasma PK; [3]): 0.25 h
- half-life (single-dose plasma PK; [3]): 3.68 ± 0.14 h
- AUC(0-inf) (single-dose plasma PK; [3]): 550 ± 71.3 ng·h/mL
- AUC(0-t) (single-dose plasma PK; [3]): 545 ± 72.1 ng·h/mL
- Co (Plasma) (single-dose plasma PK; i.v. 1 mg/kg): 854.36 ± 128.60 ng/mL
- bioavailability (BA), in words (single-dose plasma PK; p.o.): low

Compound: Ab: Aβ 1–42 (Invitrogen, 03112) used to induce an AD environment in cells
- SphK activity (Fig 3d) (neuron): 1.391 and 1.001 and 1.873 and 1.345 and 1.437 and 1.609
